Results on five compounds are retold here after ChEMBL document CHEMBL1201862, “PubChem BioAssay data set” (2004).

Calls of active or inactive are those of the source.

Test [1] relates to Streptococcus sp. 'group A'. Nature of the test: Streptococcus pyogenes SK(-)GAS viability under kanamycin – luminescence, BacTiterGlo, confirmation, counter-screen for streptokinase expression inhibitor project, dose response (AID 1900). Type of test: functional, organism-based.
Test [2] in a line: viability of PTEN-deleted HCT116 cells – cell-based, HCT116 PTEN knockout, dose response (AID 1047).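 Also: HCT116 colon tumor cells with PTEN knocked out; cells exposed to compound for 60 hours before readout; potency for loss of cell viability measured by luminescence.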 The class given is functional.
For a further test, the target named is T1, Streptokinase A (Streptococcus pyogenes serotype M1, UniProt P10520).
T1 sequence (P10520 whole entry): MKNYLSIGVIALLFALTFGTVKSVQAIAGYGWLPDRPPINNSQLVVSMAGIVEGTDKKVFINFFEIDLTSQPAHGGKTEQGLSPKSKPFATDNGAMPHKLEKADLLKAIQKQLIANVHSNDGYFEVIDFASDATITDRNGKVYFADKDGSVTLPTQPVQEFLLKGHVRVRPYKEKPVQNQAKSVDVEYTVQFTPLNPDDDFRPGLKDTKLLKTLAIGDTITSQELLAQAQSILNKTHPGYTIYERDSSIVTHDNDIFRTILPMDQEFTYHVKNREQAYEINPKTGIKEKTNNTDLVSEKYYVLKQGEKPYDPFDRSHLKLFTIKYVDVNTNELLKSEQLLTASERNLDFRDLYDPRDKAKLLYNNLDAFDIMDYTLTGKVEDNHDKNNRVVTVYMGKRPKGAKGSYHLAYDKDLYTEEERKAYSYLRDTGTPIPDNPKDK
The test is described as follows: viability-normalized secreted streptokinase activity reduction – plasminogen activation absorbance, OD405, dose response (AID 1914).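 Also: secreted streptokinase activity via plasminogen activation per viability signal from cell pellet.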 Type of test: functional, Streptococcus pyogenes M1 GAS.

For another test, the target named is X-box-binding protein 1 (Homo sapiens, UniProt P17861). The class given is functional, Cricetulus griseus.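 Also: confirmatory dose-response counter-screen serving a CHOP assay.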
Sequence of X-box-binding protein 1 (P17861 whole entry): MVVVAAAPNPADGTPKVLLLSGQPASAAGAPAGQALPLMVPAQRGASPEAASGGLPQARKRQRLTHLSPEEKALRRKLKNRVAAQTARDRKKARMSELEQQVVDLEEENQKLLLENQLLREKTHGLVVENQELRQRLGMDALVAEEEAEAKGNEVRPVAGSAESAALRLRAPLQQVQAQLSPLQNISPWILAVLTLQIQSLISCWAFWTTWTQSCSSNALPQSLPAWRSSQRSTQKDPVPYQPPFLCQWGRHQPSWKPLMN
Test [3] in a line: viability of HCT116 lacking mutant beta-catenin – cell-based, human colon tumor, dose response (AID 1045).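 Also: HCT116 colon tumor cells with beta catenin knocked out; cells exposed to compound for 60 hours.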 The class given is functional.
The subject of a further test is Streptococcus. Nature of the test: GAS UMAA2166 growth inhibition – luminescence, BacTiterGlo, counter-screen for streptokinase expression inhibitor project, dose response (AID 1915).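 Also: potency for reduction of bacterial viability or growth.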 Type of test: functional, organism-based. (In general: A counterscreen serves to expose hits that act by an unwanted route or on another target.)
For another test, the target named is Bcl-2-like protein 10 (Homo sapiens, UniProt Q9HD36). Nature of the test: Bcl-B/TR3 peptide binding disruption – biochemical, fluorescence polarization, FITC-TR3 peptide, selectivity assay for Bfl-1 inhibitor project, primary screen (AID 748).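 Also: fluorescence polarization from a fluorescein-labelled TR3 peptide binding purified Bcl-B.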 A general note: Polarisation of emitted light reports the rotation of a fluorescent probe.
Sequence of Bcl-2-like protein 10 (Q9HD36 whole entry): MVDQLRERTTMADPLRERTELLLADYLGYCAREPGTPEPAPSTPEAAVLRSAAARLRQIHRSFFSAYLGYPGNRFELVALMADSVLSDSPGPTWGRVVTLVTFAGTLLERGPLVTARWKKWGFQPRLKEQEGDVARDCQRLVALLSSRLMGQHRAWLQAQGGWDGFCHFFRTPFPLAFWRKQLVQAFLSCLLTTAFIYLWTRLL
Test [4] deals with T2, Estrogen receptor beta (Homo sapiens, UniProt Q92731). The test is described as follows: blockers of SRC-3 recruitment to ERβ – biochemical, ELISA, streptavidin-HRP readout, orthogonal assay, confirmation (AID 1060).
T2 sequence (Q92731 whole entry): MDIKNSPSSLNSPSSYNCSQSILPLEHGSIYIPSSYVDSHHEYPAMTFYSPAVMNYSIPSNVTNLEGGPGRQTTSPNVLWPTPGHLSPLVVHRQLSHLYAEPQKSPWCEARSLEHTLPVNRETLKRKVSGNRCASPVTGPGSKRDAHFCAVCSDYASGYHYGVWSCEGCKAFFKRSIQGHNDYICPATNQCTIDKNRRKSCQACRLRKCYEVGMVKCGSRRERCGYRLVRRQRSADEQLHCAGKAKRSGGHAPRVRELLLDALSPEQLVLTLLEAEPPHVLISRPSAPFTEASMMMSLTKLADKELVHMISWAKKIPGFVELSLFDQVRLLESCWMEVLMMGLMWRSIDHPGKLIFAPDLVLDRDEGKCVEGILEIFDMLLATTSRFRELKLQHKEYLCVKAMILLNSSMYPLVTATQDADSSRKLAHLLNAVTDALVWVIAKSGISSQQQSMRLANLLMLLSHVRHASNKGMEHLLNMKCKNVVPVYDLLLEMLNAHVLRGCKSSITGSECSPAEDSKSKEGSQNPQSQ
Test [5] in a line: viability loss in THP-1 monocytes – THP-1 cells, cytotoxicity control for Vif-APOBEC3G degradation inhibitor project, dose response (AID 1117359). The note with it: THP-1. Type of test: functional.
The target of test [6] is T2, Estrogen receptor beta.
In test [7] the test system is HEK293. The test is described as follows: cells. The class given is functional, cell-based. Conditions: Homo sapiens.
The target of test [8] is T3, Heat shock factor protein 1 (Mus musculus, UniProt P38532).
T3 sequence (P38532 whole entry): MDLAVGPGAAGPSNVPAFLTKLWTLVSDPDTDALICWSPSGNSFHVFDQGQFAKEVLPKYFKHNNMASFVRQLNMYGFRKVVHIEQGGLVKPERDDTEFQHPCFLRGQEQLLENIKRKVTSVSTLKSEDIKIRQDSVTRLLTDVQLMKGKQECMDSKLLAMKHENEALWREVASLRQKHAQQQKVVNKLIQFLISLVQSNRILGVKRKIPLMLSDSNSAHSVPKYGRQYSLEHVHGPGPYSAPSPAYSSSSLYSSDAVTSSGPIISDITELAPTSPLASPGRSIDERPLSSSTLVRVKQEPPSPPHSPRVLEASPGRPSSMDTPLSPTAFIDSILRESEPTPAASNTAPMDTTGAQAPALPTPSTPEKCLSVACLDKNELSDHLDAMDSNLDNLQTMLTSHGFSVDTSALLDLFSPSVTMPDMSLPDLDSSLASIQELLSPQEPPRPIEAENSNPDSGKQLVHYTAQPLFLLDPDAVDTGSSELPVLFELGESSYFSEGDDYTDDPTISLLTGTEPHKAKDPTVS
Nature of the test: enhancement of HSF1-driven luciferase signal – cell-based, NIH3T3, luminescence, dose retest, confirmation (AID 435004).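 Also: stress induced by proteasome inhibitor MG132 added 30 min after compound; luciferase reporter driven by HSF1 response element in NIH3T3 cells; actives raise luminescence as potentiators of the MG132 stress response.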 Type of test: functional.

In a further test the target is Tumor necrosis factor (Homo sapiens, UniProt P01375). The test is described as follows: analog potency on TNFa NF-kB signaling – cell-based, revised, SAR follow-up (AID 2337). The class given is functional.
Sequence of Tumor necrosis factor (P01375 whole entry): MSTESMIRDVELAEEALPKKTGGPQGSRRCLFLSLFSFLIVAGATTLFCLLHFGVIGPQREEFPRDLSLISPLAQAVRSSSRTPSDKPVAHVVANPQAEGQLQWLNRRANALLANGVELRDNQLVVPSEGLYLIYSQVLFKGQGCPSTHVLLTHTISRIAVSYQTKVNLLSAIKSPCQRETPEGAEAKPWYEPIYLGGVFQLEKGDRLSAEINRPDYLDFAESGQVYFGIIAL
Test [9] has as its target T4, Corticotropin-releasing factor receptor 2/Corticotropin-releasing factor-binding protein (Homo sapiens, UniProt P24387+Q13324).
T4 sequence (Q13324 whole entry): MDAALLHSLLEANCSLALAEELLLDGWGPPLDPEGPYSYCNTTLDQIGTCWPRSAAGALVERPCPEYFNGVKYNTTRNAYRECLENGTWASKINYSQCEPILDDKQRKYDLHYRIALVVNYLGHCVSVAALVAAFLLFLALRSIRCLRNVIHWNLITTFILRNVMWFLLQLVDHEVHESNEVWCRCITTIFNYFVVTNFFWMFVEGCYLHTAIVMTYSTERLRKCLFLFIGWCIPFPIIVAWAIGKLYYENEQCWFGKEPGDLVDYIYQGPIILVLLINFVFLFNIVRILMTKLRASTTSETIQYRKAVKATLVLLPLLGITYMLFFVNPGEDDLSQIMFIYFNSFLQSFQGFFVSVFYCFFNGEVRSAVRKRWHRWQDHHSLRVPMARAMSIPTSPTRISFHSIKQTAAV
T4 sequence (P24387 whole entry): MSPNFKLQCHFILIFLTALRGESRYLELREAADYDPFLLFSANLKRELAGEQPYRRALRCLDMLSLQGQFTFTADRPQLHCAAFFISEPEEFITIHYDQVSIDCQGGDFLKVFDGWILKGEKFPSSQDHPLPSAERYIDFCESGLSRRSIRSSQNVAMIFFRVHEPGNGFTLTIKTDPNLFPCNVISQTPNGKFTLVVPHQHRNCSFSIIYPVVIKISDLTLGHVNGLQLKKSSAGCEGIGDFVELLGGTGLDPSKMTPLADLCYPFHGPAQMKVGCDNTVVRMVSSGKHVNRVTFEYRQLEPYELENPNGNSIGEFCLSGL
Nature of the test: Dose Response confirmation of uHTS hits for small molecule antagonists of the CRF-binding protein and CRF-R2 receptor complex. The class given is functional. Conditions: read-out: IC50_Mean.

Test [10] has as its system HEK293. The test is described as follows: cells. The class given is functional, cell-based. The note with it: Homo sapiens. The source holds these as a separate data set.
The target of test [11] is T5, Nucleotide-binding oligomerization domain-containing protein 2 (Homo sapiens, UniProt Q9HC29). Nature of the test: PubChem AID 2334. The class given is functional.
T5 sequence (Q9HC29 whole entry, the tested form may be a part): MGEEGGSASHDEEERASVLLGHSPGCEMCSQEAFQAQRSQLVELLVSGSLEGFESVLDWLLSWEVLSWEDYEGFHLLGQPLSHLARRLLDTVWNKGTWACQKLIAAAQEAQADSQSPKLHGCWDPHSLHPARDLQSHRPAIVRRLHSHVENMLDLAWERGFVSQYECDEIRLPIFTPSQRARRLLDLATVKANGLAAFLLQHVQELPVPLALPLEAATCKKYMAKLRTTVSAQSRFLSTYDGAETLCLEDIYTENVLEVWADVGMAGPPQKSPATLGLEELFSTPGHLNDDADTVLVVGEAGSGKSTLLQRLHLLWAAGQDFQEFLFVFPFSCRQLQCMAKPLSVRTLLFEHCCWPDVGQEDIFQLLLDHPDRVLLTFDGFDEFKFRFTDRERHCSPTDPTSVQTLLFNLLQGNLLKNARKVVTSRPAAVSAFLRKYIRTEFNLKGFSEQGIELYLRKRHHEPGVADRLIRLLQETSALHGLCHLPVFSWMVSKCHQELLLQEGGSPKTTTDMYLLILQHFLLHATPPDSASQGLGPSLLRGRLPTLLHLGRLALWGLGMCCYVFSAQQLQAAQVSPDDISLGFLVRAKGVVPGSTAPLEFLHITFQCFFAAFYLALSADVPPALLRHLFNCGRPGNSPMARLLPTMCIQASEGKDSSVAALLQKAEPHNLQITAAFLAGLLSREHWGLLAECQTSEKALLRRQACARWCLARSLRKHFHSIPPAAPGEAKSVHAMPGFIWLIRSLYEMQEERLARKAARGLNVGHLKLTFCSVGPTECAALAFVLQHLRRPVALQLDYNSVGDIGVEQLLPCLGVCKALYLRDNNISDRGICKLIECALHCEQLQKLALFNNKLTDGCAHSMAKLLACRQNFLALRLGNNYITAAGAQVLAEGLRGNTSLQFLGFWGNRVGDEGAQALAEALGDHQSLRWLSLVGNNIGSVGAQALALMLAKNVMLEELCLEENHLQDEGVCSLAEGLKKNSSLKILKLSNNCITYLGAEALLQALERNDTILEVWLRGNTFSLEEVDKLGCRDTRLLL
Test [12] deals with HEK293. Nature of the test: NOD2 signaling inhibitors in MDP-stimulated cells, cell-based, uHTS, luminescence (AID 2001). The note with it: Homo sapiens. The class given is functional.
Test [13] concerns HEK293. The test is described as follows: cells. Conditions: Homo sapiens.
For test [14], the target named is T5, Nucleotide-binding oligomerization domain-containing protein 2. The test is described as follows: inhibition of NOD2-driven NF-kB reporter – cell-based, luminescence, uHTS, HEK293 (AID 1566). Type of test: functional.
The subject of test [15] is HEK293. Nature of the test: inhibition of NOD1-driven NF-kB reporter – cell-based, luminescence, uHTS, primary screen (AID 1578). The class given is functional. The note with it: Homo sapiens.
Test [16] relates to HEK293. The test is described as follows: cells. The class given is functional, cell-based. The note with it: Homo sapiens. This is another data set of the same source.
Test [17] addresses T6, Nucleotide-binding oligomerization domain-containing protein 1 (Homo sapiens, UniProt Q9Y239).
T6 sequence (Q9Y239 whole entry): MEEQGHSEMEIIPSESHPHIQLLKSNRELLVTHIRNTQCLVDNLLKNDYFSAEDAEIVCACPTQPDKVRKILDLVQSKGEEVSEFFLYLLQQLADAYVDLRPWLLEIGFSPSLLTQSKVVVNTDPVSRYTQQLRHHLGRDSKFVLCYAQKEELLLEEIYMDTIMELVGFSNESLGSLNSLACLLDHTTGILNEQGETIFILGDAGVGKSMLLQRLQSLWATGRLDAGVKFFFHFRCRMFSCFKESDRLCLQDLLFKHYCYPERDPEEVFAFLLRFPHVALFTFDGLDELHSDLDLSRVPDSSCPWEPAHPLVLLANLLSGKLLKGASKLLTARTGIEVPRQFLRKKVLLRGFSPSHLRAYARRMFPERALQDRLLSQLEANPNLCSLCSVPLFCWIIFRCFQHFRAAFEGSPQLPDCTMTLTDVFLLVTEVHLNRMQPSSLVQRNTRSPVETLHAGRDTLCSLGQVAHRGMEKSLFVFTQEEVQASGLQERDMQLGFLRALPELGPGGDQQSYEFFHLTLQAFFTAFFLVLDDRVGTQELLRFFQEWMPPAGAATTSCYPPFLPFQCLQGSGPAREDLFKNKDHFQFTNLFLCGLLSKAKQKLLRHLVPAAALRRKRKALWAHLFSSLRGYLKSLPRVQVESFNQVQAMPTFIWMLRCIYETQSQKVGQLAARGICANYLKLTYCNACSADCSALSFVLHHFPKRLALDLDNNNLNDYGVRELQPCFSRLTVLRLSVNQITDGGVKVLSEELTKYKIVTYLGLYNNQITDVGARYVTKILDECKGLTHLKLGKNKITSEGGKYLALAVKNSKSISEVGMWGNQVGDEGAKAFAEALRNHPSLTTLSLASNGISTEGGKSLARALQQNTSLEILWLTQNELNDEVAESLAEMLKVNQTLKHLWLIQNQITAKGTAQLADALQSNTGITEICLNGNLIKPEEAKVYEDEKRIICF
Nature of the test: blockers of NOD1 pathway activity – revised, SAR follow-up (AID 2333). The class given is functional.

Test [18] has as its target T4, Corticotropin-releasing factor receptor 2/Corticotropin-releasing factor-binding protein. Nature of the test: activators of CRF receptor 2 with binding protein – uHTS hits, confirmation (AID 602473). The note with it: read-out: EC50_Mean. Type of test: functional.
Test [19] in a line: HepG2 cell cytotoxicity, dose response, cytotoxicity control for non-replicating M. tuberculosis project (AID 489018). The class given is functional. Conditions: Mycobacterium tuberculosis.
Test [20] is described as follows: Vero E6 cell cytotoxicity, dose response, cytotoxicity control for non-replicating M. tuberculosis project, secondary assay (AID 492998). The class given is functional, VeroE6. Conditions: Vero C1008.
The next test in a line: cells. The class given is functional.

The CC50 is the concentration that lowers cell viability or growth by half.

As for `Oc1[nH]c2ccccc2c1N=NC(S)=NCCc1ccccc1`, the EC50 in test [1] is 4.7 µM (active); in test [2] it was 24 µM (active); at Streptokinase A it was > 150 µM (not active); in [3], 23 µM (active); with Streptococcus, 10.9 µM (active). On X-box-binding protein 1, the “Absolute IC50 (XBP1)” value stood at 10 µM.

Consider `O=C(CSc1ccc(Cl)cc1)c1ccco1`, for which the IC50 at Bcl-2-like protein 10 was 25.5 µM (active); at Estrogen receptor beta [4], 17.9 µM (not active); at Estrogen receptor beta [6], < 1.56 µM (active). Moreover, the CC50 in test [5] is > 40 µM (active).

For the compound `O=C(NC(=S)N1CCN(c2ccc(F)cc2)CC1)c1cccs1`, the IC50 is > 20 µM (inactive) in the test on HEK293 [7]; > 20 µM (inactive) at Tumor necrosis factor; > 47.1 µM (inactive) in test [9]; > 20 µM (inactive) in the test with HEK293 [10]; > 20 µM (inactive) in test [11]; 10 µM (inactive) with HEK293 [12]. Besides, the values for the IC50 (in the test with HEK293 [13]; in the test with HEK293 [16]; in [17]) were > 20 µM (inactive), > 20 µM (inactive) and 19.4 µM (active), respectively. For the same compound, the EC50 in test [8] is > 260 µM (inactive); in [14], > 20 µM (inactive); with HEK293 [15], > 20 µM (inactive); in test [18] it was > 53 µM (inactive).

In the case of `COc1ccc(CCNc2nc(-c3ccccn3)cs2)cc1OC`, the EC50 in test [1] is 14.3 µM (active); at Streptokinase A, > 150 µM (not active); in the test on Streptococcus, > 150 µM (not active). Moreover, the results for the CC50 in test [19] and in [20] were > 20 µM (active) and 14.7 µM (active), respectively. For the same compound, in the test “cells”, the IC50 was 1.14 µM (active).

`O=C(C1CC1)N1CCc2cc(S(=O)(=O)N3CCN(c4ccc(Cl)cc4)CC3)ccc21`: the IC50 (at Tumor necrosis factor; in test [11]; in the test with HEK293 [13]; in test [17]) was > 20 µM (inactive) throughout.
